Tests used:
Wistar rats = test: Diuresis investigations in conscious rats kept in metabolism cages; type: in vivo; conditions: rat
Procedure: Wistar rats (220-450 g body weight) are kept with free access to feed (Altromin) and drinking water. During the experiment, the animals are kept with free access to drinking water for 4 to 8 or up to 24 hours individually in metabolism cages suitable for rats of this weight class (Tecniplast Deutschland GmbH, D-82383 Hohenpeißenberg). At the beginning of the experiment, the animals are administered the test substance in a volume of 1 to 3 ml/kg body weight of a suitable solvent by means of gavage into the stomach. Control animals only receive solvent. Controls and substance tests are carried out in parallel on the same day. Control groups and substance-dose groups each consist of 4 to 8 animals. During the experiment, the urine excreted by the animals is collected continuously in a receiver at the base of the cage. The volume of urine per time unit is determined separately for each animal, and the concentration of urinary electrolytes is measured by standard methods of flame photometry. Before the beginning of the experiment, the body weight of the individual animals is determined.

human V2 receptor = human V2 receptor (Homo sapiens (Human), UniProt P30518); test: Cellular in vitro assay for vasopressin receptor activity, V2 receptor cell line (CRE-luciferase); type: cell-based; conditions: CHO cell line transfected with human V2 receptor; [Arg8]-vasopressin at EC50; read-out: IC50 hV2
Sequence of human V2 receptor (P30518 whole entry): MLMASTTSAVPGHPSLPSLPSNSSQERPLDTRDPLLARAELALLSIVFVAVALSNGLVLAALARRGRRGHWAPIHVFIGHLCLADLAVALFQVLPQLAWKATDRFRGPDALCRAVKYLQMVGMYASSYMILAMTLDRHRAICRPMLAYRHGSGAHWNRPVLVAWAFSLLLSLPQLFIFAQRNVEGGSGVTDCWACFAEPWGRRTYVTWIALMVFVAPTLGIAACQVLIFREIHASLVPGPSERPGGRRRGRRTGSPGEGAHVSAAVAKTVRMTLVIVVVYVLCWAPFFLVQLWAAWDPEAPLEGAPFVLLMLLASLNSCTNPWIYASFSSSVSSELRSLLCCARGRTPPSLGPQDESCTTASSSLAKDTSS
Procedure: (§1) The identification of agonists and antagonists of the V1a and V2 vasopressin receptors from humans, rats and dogs as well as the quantification of the activity of the compounds of the invention is carried out using recombinant cell lines. These cell lines originally derive from a hamster's ovary epithelial cell (Chinese Hamster Ovary, CHO K1, ATCC: American Type Culture Collection, Manassas, Va. 20108, USA). The test cell lines constitutively express the human, rat or dog V1a or V2 receptors. In case of the Gαq-coupled V1a receptors, cells are also stably transfected with a modified form of the calcium-sensitive photoproteins aequorin (human and rat V1a) or obelin (dog V1a), which, after reconstitution with the cofactor coelenterazine, emit light when there are increases in free calcium concentrations [Rizzuto R, Simpson A W, Brini M, Pozzan T, Nature 358, 325-327 (1992); Illarionov B A, Bondar V S, Illarionova V A, Vysotski E S, Gene 153 (2), 273-274 (1995)]. The resulting vasopressin receptor cells react to stimulation of the recombinantly expressed V1a receptors by intracellular release of calcium ions, which can be quantified by the resulting photoprotein luminescence. The Gs-coupled V2 receptors are stably transfected into cell lines expressing the gene for firefly luciferase under control of a CRE-responsible promoter. Activation of V2 receptors induces the activation of the CRE-responsive promoter via cAMP increase, thereby inducing the expression of firefly luciferase. The light emitted by photoproteins of V1a cell lines as well as the light emitted by firefly luciferase of V2 cell lines corresponds to the activation or inhibition of the respective vasopressin receptor. The bioluminescence of the cell lines is detected using a suitable luminometer [Milligan G, Marshall F, Rees S, Trends in Pharmacological Sciences 17, 235-237 (1996)].
On the day before the assay, the cells are plated out in culture medium (DMEM/F12, 2% FCS, 2 mM glutamine, 10 mM HEPES) in 384-well microtiter plates and kept in a cell incubator (96% humidity, 5% v/v CO2, 37° C.). […] Upon addition of the cell lysis reagent Triton™ and the substrate luciferin, luminescence of firefly luciferase is measured in a luminometer.

human V1a receptor = human V1a receptor (Homo sapiens (Human), UniProt P37288); test: Cellular in vitro assay for vasopressin receptor activity, V1a receptor cell line (aequorin luminescence); type: cell-based; conditions: CHO cell line transfected with human V1a receptor; [Arg8]-vasopressin at EC50; read-out: IC50 hV1a
Sequence of human V1a receptor (P37288 whole entry): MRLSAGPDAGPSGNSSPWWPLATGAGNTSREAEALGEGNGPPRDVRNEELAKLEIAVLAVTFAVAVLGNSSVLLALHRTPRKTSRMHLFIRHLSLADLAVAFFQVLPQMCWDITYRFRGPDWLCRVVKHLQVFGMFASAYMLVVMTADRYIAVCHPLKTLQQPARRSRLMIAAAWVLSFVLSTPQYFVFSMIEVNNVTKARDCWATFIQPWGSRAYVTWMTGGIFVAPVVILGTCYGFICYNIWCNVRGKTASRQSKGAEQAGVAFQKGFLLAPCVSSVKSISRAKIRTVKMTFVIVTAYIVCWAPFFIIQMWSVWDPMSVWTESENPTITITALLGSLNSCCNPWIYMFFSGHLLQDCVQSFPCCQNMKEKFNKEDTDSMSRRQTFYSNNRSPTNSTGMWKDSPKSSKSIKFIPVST
Procedure: as §1
On the day before the assay, the cells are plated out in culture medium (DMEM/F12, 2% FCS, 2 mM glutamine, 10 mM HEPES, 5 μg/ml coelenterazine) in 384-well microtiter plates and kept in a cell incubator (96% humidity, 5% v/v CO2, 37° C.). On the day of the assay, test compounds in various concentrations are placed for 10 minutes in the wells of the microtiter plate before the agonist [Arg^8]-vasopressin at EC50 concentration is added. The resulting light signal is measured immediately in the luminometer.

## O=C(O)Cn1nc(Cn2nc(-c3ccc(Cl)cc3)n(C[C@H](O)C(F)(F)F)c2=O)nc1-c1ccccc1Cl [Example No. WO 2011/104322 60]
Wistar rats; 0.3 mg/kg p.o.
  Urinary volume [% vs. control = 100%]: 96 % vs. control = 100%
Wistar rats; 3.0 mg/kg p.o.
  Urinary volume [% vs. control = 100%]: 84 % vs. control = 100%

## CC(O)c1nc(Cn2nc(-c3ccc(Cl)cc3)n(CC(=O)C(F)(F)F)c2=O)nn1-c1cccc(Cl)c1 [Example 5, 5-(4-Chlorophenyl)-2-({1-(3-chlorophenyl)-5-[(1S,R)-1-hydroxyethyl]-1H-1,2,4-triazol-3-yl}methyl)-4-(3,3,3-trifluoro-2-oxopropyl)-2,4-dihydro-3H-1,2,4-triazol-3-one]
Human V2 receptor
  IC50: 2.8 nM
Human V1a receptor
  IC50: 55 nM

## O=c1n(Cc2cn(-c3ccccc3Cl)cn2)nc(-c2ccc(Cl)cc2)n1C[C@H](O)C(F)(F)F [Example No. WO 2011/104322 110]
Wistar rats; 0.3 mg/kg p.o.
  Urinary volume [% vs. control = 100%]: 114 % vs. control = 100%
Wistar rats; 3.0 mg/kg p.o.
  Urinary volume [% vs. control = 100%]: 274 % vs. control = 100%

## COC(=O)Cn1nc(-c2ccccc2Cl)nc1Cn1nc(-c2ccc(Cl)cc2)n(C[C@H](O)C(F)(F)F)c1=O [Example No. WO 2011/104322 56]
Wistar rats; 0.3 mg/kg p.o.
  Urinary volume [% vs. control = 100%]: 128 % vs. control = 100%
Wistar rats; 3.0 mg/kg p.o.
  Urinary volume [% vs. control = 100%]: 85 % vs. control = 100%
Human V2 receptor
  IC50: 6.7 nM
Human V1a receptor
  IC50: 1.3 nM

## CC(=O)c1nc(Cn2nc(-c3ccc(Cl)cc3)n(CC(=O)C(F)(F)F)c2=O)nn1-c1cccc(Cl)c1 [Example 4, 2-{[5-Acetyl-1-(3-chlorophenyl)-1H-1,2,4-triazol-3-yl]methyl}-5-(4-chlorophenyl)-4-(3,3,3-trifluoro-2-oxopropyl)-2,4-dihydro-3H-1,2,4-triazol-3-one]
Human V2 receptor
  IC50: 7.7 nM
Human V1a receptor
  IC50: 123 nM

## NC(=O)Cn1nc(Cn2nc(-c3ccc(Cl)cc3)n(C[C@H](O)C(F)(F)F)c2=O)nc1-c1ccccc1Cl [Example No. WO 2011/104322 68]
Wistar rats; 0.3 mg/kg p.o.
  Urinary volume [% vs. control = 100%]: 87 % vs. control = 100%
Wistar rats; 3.0 mg/kg p.o.
  Urinary volume [% vs. control = 100%]: 121 % vs. control = 100%

## CC(=O)c1nc(Cn2nc(-c3ccc(Cl)cc3)n(C[C@H](O)C(F)(F)F)c2=O)nn1-c1cccc(Cl)c1 [Example 1, 2-{[5-Acetyl-1-(3-chlorophenyl)-1H-1,2,4-triazol-3-yl]methyl}-5-(4-chlorophenyl)-4-[(2S)-3,3,3-trifluoro-2-hydroxypropyl]-2,4-dihydro-3H-1,2,4-triazol-3-one]
Wistar rats; 0.3 mg/kg p.o.
  Urinary volume [% vs. control = 100%]: 344 % vs. control = 100%
Wistar rats; 3.0 mg/kg p.o.
  Urinary volume [% vs. control = 100%]: 554 % vs. control = 100%
Human V2 receptor
  IC50: 2.3 nM
Human V1a receptor
  IC50: 34.5 nM

## O=c1n(Cc2nnc(-c3ccccc3Cl)[nH]2)nc(-c2ccc(Cl)cc2)n1C[C@H](O)C(F)(F)F [Example No. WO 2011/104322 54]
Wistar rats; 0.3 mg/kg p.o.
  Urinary volume [% vs. control = 100%]: 85 % vs. control = 100%
Wistar rats; 3.0 mg/kg p.o.
  Urinary volume [% vs. control = 100%]: 188 % vs. control = 100%

## O=c1n(Cc2cn(-c3ccccc3Cl)nn2)nc(-c2ccc(Cl)cc2)n1C[C@H](O)C(F)(F)F [Example No. WO 2011/104322 101]
Wistar rats; 0.3 mg/kg p.o.
  Urinary volume [% vs. control = 100%]: 111 % vs. control = 100%
Wistar rats; 3.0 mg/kg p.o.
  Urinary volume [% vs. control = 100%]: 255 % vs. control = 100%

## CC(=O)c1nc(Cn2nc(-c3ccc(Cl)cc3)n(C[C@H](O)C(F)(F)F)c2=O)nn1-c1ccccc1Cl [Example 3, 2-{[5-Acetyl-1-(2-chlorophenyl)-1H-1,2,4-triazol-3-yl]methyl}-5-(4-chlorophenyl)-4-[(2S)-3,3,3-trifluoro-2-hydroxypropyl]-2,4-dihydro-3H-1,2,4-triazol-3-one]
Wistar rats; 0.3 mg/kg p.o.
  Urinary volume [% vs. control = 100%]: 172 % vs. control = 100%
Wistar rats; 3.0 mg/kg p.o.
  Urinary volume [% vs. control = 100%]: 679 % vs. control = 100%
Human V2 receptor
  IC50: 4.9 nM
Human V1a receptor
  IC50: 0.5 nM

## CC(=O)c1nc(Cn2nc(-c3ccc(Cl)cc3)n(C[C@H](O)C(F)(F)F)c2=O)nn1-c1cccc(F)c1 [Example 2, 2-{[5-Acetyl-1-(3-fluorophenyl)-1H-1,2,4-triazol-3-yl]methyl}-5-(4-chlorophenyl)-4-[(2S)-3,3,3-trifluoro-2-hydroxypropyl]-2,4-dihydro-3H-1,2,4-triazol-3-one]
Human V2 receptor
  IC50: 6.2 nM
Human V1a receptor
  IC50: 7.5 nM

— patent publication US10800746B2, “Oxoalkyl-substituted phenyltriazole derivatives and uses thereof” (BAYER PHARMA AKTIENGESELLSCHAFT, priority 2016, dated 2020)
